Assay results published in patent US11938121B2, “Treatment of infections and biofilm formation using a cellulose synthase inhibitor” (Purdue Research Foundation, priority 2020, dated 2024).

Tests used:
rice (Oryza sativa) = test: Rice seedling root growth; type: in vivo; conditions: 20 μM, 6-day-old seedlings
Excerpt: (§1) ES20 has broad spectrum inhibitory effect on the growth of both dicotyledonous and monocotyledonous plants (Huang and Zhang, Plant Signal Behav. 2020, 15, 1780039). We tested whether ES20-1 has stronger inhibitory effect on the growth of monocotyledon plants than ES20. We grew rice (Oryza sativa) and maize (Zea mays) seedlings on the same concentrations of ES20 and ES20-1 and compared their effects on growth.

[1] = system: AtCESA6 (cesa6 alleles es20r1-es20r15); conditions: Huang et al., 2020; cited from earlier work
maize (Zea mays) = test: Maize seedling root growth; type: in vivo; conditions: 20 μM, 6-day-old seedlings
Excerpt: as §1

[2] = system: Rhodobacter sphaeroidesin; test: Rhodobacter sphaeroidesin growth in overnight culture; type: cell-based, Rhodobacter sphaeroides; conditions: vs DMSO control media
Excerpt: To test the effect of Endosidin20/Cellulosin in bacterial cell growth, we first grew Rhodobacter sphaeroidesin in the presence of Ensodin20/Cellulosin.

[3] = system: AtCESA6 carrying missense mutations in prc1-1; conditions: Huang et al., 2020; cited from earlier work
[4] = molecular target: T1, YFP-AtCESA6 cellulose synthase complexes (CSCs) in root epidermal cells (Arabidopsis thaliana, UniProt Q94JQ6); conditions: Huang et al., 2020; cited from earlier work
T1 construct: expressed in transfected cells; host or cells: transgenic Arabidopsis thaliana YFP-AtCESA6 seedlings (total protein extract for DARTS; root epidermal cells for imaging)

Komagataeibacter xylinus [5] = test: K. xylinus cell growth on HS solid medium; type: cell-based; conditions: 6 days
Excerpt: Based on primary protein sequence analysis and a comparison of three-dimensional protein structures, the catalytic sites of cellulose synthases are highly conserved across kingdoms (Huang et al., 2020, Purushotham et al., 2020). The amino acids that are directly involved in glucan chain initiation, elongation, and translocation are conserved between plant and bacterial cellulose synthases (Huang et al., 2020). Based on the conservation of catalytic sites in cellulose synthases, we hypothesized that ES20 and ES20-1 would inhibit bacterial cellulose biosynthesis as well. We chose to test the effects of ES20 and ES20-1 on cell growth and cellulose production in Komagataeibacter xylinus (K. xylinus, previously known as Gluconacetobacter xylinus) because this bacterium produces abundant cellulose. We first tested whether ES20 and ES20-1 affect K. xylinus cell growth. We grew K. xylinus cells in liquid […] (HS) medium and then we inoculated 20 μL of series diluted culture to HS solid growth medium supplemented with DMSO (0.1%) or different concentrations of ES20 and ES20-1. […] We found ES20 and ES20-1 affect K. xylinus colony morphology as well. […] Wrinkles radiating structure is often observed in cellulose-producing bacteria strains and this structure is often affected when cellulose biosynthesis is disrupted.
Komagataeibacter xylinus (previously named Gluconacetobacter xylinus) ATCC strain 700178 was obtained from ATCC (Manassas, Va., USA) to evaluate cellulose production. HS (Hestrin and Schramm) medium was used for culture; HS liquid medium contains 2.0% glucose (w/v), 0.5% yeast extract (w/v), 0.5% peptone (w/v), 0.27% Na2HPO4 (w/v), and 0.15% citric acid (w/v), pH 5.0, and HS solid medium was solidified with 1.8% agar (w/v). To prepare the initial inoculation source, a single K. xylinus colony grown on HS solid medium was transferred to HS liquid medium and cultured at 26° C. for 5 days under static conditions. We used cells from the bottom of the liquid culture as the initial inoculation source to avoid biofilm aggregates at the air-liquid interface. To test the effect of ES20 and ES20-1 on the bacteria growth, initial inoculation source was series diluted and 20 μL culture from each diluted solution was dropped on HS solid medium supplemented with DMSO (0.1%) or different concentrations of ES20 and ES20-1 and cultured at 26° C. for 6 days after the dropped culture was completely dry. To test the effects of ES20 and ES20-1 on cellulose production, the prepared inoculation source was inoculated at a dilution ratio of 1:1000 dilution in HS liquid medium supplemented with 0.1% DMSO or 20 μM of ES20 or ES20-1. Static cultivation was carried out in a 26° C. incubator, and agitated cultivation was carried out at 26° C. with shaking at 220 rpm. […]

Komagataeibacter xylinus [6] = test: K. xylinus cellulose production in liquid culture; type: cell-based; conditions: 20 μM
Excerpt: We next grew K. xylinus cells in growth medium supplemented with DMSO, ES20, or ES20-1 under agitation. […] We also grew K. xylinus in liquid medium supplemented with DMSO, ES20, or ES20-1 under static cultivation conditions. Without agitation, pellicles containing cellulose often form at the air-liquid interface. […] To quantify the effects of ES20 and ES20-1 on cellulose production, we harvested the pellicles from these cultures and isolated cellulose from the pellicles.
Komagataeibacter xylinus (previously named Gluconacetobacter xylinus) ATCC strain 700178 was obtained from ATCC (Manassas, Va., USA) to evaluate cellulose production. HS (Hestrin and Schramm) medium was used for culture; HS liquid medium contains 2.0% glucose (w/v), 0.5% yeast extract (w/v), 0.5% peptone (w/v), 0.27% Na2HPO4 (w/v), and 0.15% citric acid (w/v), pH 5.0, and HS solid medium was solidified with 1.8% agar (w/v). To prepare the initial inoculation source, a single K. xylinus colony grown on HS solid medium was transferred to HS liquid medium and cultured at 26° C. for 5 days under static conditions. We used cells from the bottom of the liquid culture as the initial inoculation source to avoid biofilm aggregates at the air-liquid interface. To test the effect of ES20 and ES20-1 on the bacteria growth, initial inoculation source was series diluted and 20 μL culture from each diluted solution was dropped on HS solid medium supplemented with DMSO (0.1%) or different concentrations of ES20 and ES20-1 and cultured at 26° C. for 6 days after the dropped culture was completely dry. To test the effects of ES20 and ES20-1 on cellulose production, the prepared inoculation source was inoculated at a dilution ratio of 1:1000 dilution in HS liquid medium supplemented with 0.1% DMSO or 20 μM of ES20 or ES20-1. Static cultivation was carried out in a 26° C. incubator, and agitated cultivation was carried out at 26° C. with shaking at 220 rpm. To isolate cellulose from pellicles, the pellicles were removed from liquid culture, washed several times with deionized water, and soaked in 0.1 M NaOH at 80° C. for 2 h. The pellicles were washed several times with deionized water to completely remove the alkali. The purified cellulose was dried at 60° C. for ˜1 day until a constant dry mass was reached.

[7] = molecular target: T2, GFP-CESA6c (central cytosolic domain of AtCESA6) (Arabidopsis thaliana, UniProt Q94JQ6); test: MST assay with GFP-CESA6c; type: binding; conditions: 100 nM GFP-CESA6c
T2 construct: made in house; host or cells: E. coli
Excerpt: (§2) To obtain the central cytosolic domain of AtCESA6 for the MST assay, we inserted the GFP coding sequence into the SacI and PstI restriction enzyme sites of the pRSF-Duet-1 vector (Huang et al., 2020). The GFP coding sequence was amplified from the pUBN-GFP-DEST vector. The sequence encoding the central cytosolic domain of CESA6 (CESA6c) was amplified from Col-0 cDNA and fused with GFP at the C-terminus. CESA6c construct was used as a template for creating CESA6c^P595S construct by site-directed mutagenesis. Protein purification was performed as previously described (Huang et al., 2020).
(§3) MST assays were carried out using a Monolith NT.115 (NanoTemper) machine at the Chemical Genomics Facility at Purdue University. […] The ES20-1 was dissolved in DMSO, and the final concentration of DMSO was 5% (vol/vol). MST standard capillaries were used to load the samples into the MST instrument. Triplicate reactions were performed for each test. The MST data were processed using MO. Affinity Analysis Version 2.3 software.

Arabidopsis Col-0 [8] = test: Crystalline cellulose content measurement of cell wall; type: in vivo, Arabidopsis thaliana; conditions: 1 μM, 7-day-old dark-grown seedlings
Protocol: Arabidopsis Col-0 seeds were sown on growth medium supplemented with 0.1% DMSO, 1 μM ES20, or different concentrations of ES20 analogs. […] Cellulose extraction and measurement were performed as previously described (Huang et al., 2020).

Arabidopsis Col-0 [9] = conditions: 1 μM; cited from earlier work
GFP-CESA6c^P595S = molecular target: T3, GFP-CESA6c^P595S (Arabidopsis thaliana, UniProt Q94JQ6, P595S); test: MST assay with GFP-CESA6c^P595S; type: binding
T3 construct: We purified AtCESA6 central cytoplasmic domain carrying missense mutation P595S (CESA6c^P595S); made in house; host or cells: E. coli (inferred from the wild-type CESA6c construct that served as template)
Excerpt: as §2, §3

[10] = 5 days static cultivation, vs DMSO

COc1ccc(C(=O)NC(=S)NNC(=O)c2ccccc2C)cc1 [ES20, Endosidin20]
rice root growth inhibition (rice (Oryza sativa)): could inhibit the root growth | sensitivity of es20r1-es20r15 mutants to ES20 [1]: reduced sensitivity | maize root growth inhibition (maize (Zea mays)): could inhibit the root growth | growth of Rhodobacter sphaeroidesin [2]: significantly slower | sensitivity of transgenic plants with AtCESA6 catalytic site mutations to ES20 [3]: also had reduced sensitivity | effect on CSC motility, density and localization [4]: reduces the motility and density of CSCs at the PM and induces their accumulation at the SmaCCs and Golgi | effect on delivery rate of CSCs to PM [4]: reduced the delivery rate of CSCs to PM | K. xylinus cell growth inhibition (Komagataeibacter xylinus [5]; 20 μM and 50 μM): inhibit K. xylinus cell growth at both 20 μM and 50 μM concentrations | K. xylinus colony morphology (wrinkles radiating structures) (Komagataeibacter xylinus [5]; 20 μM): the wrinkles are not obvious | size of cellulose clusters (Komagataeibacter xylinus [6]; 5 days agitated cultivation, vs DMSO): smaller | dry mass of cellulose from pellicles (Komagataeibacter xylinus [6]; 5 days static cultivation, mean±SD, n=9): 268 ± 139 mg/L | decrease of dry mass of cellulose from pellicles (Komagataeibacter xylinus [6]; [10]): ~45% | pellicle thickness (Komagataeibacter xylinus [6]; [10]): pellicles in cultures containing DMSO are thicker | interaction with CESA6c [7]: interacted | crystalline cellulose content in hypocotyl cell wall (Arabidopsis Col-0 [8]; mean±SD, n=3): 109 ± 4 µg/mg | reduction of crystalline cellulose levels in the hypocotyl (Arabidopsis Col-0 [8]; vs DMSO): approximately 35% | inhibition of Arabidopsis thaliana root growth (Arabidopsis Col-0 [9]): more than 50% | interaction with CESA6c^P595S (GFP-CESA6c^P595S): interacts
